Laboratory results from patent US20250215039A1, “NUCLEOSIDES FOR TREATING CANCER” (PRIMEFOUR THERAPEUTICS, INC., priority 2022, published 2025).
Read-outs that look alike come from different tables or passages of the source.

System: cancer cell lines
Experiment: Cancer cell proliferation activity (CellTiterGlo, 72 h)
Format: cell-based
Settings: for IC50: 72 h, read-out: IC50
Summary of the method: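 Readout is CellTiterGlo luminescence after 72 h compound exposure (0.1% DMSO final), started one day post-seeding, at 37 °C.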

Compound: Nc1ccn([C@@H]2O[C@H](CO)[C@@H](O)C2(F)F)c(=O)n1 [gemcitabine, reference compound]
- IC50 (5637 cell line (bladder)): 1.6 nM
- IC50 (CLS439 cell line (bladder)): 3.5 nM
- IC50 (HS729 cell line (muscle)): 3.6 nM
- IC50 (HSS78T cell line): 3.8 nM
- IC50 (JAR cell line (placenta)): 2 nM
- IC50 (SKMELS cell line): 3.2 nM
- IC50 (Homo sapiens, 22Rv1, 72 h, 22RV1 cell line (prostate)): 13 nM
- IC50 (Homo sapiens, 786-0, 72 h, 786O cell line (kidney)): 4.1 nM
- IC50 (Homo sapiens, A204, 72 h, A204 cell line (muscle)): 0.9 nM
- IC50 (Homo sapiens, A549, 72 h, A549 cell line): 3.1 nM
- IC50 (Homo sapiens, A673, 72 h, A673 cell line (bone)): 3.5 nM
- IC50 (Homo sapiens, A2780, 72 h, A2780 cell line (ovary)): 2.4 nM
- IC50 (Homo sapiens, A-375, 72 h, A375 cell line (skin)): 2.3 nM
- IC50 (Homo sapiens, A-431, 72 h, A431 cell line (skin)): 2.3 nM
- IC50 (Homo sapiens, ACHN, ACHN cell line (kidney)): 1.5 nM
- IC50 (Homo sapiens, ASPC1, 72 h, ASPC1 cell line (pancreas)): 5.2 nM
- IC50 (Homo sapiens, BT-20, 72 h, BT20 cell line (breast)): 7 nM
- IC50 (Homo sapiens, BXPC-3, 72 h, BXPC3 cell line (pancreas)): 2.4 nM
- IC50 (Homo sapiens, C-33-A, C33A cell line (cervical)): 4.4 nM
- IC50 (Homo sapiens, CAKI-1, 72 h, CAKI1 cell line (kidney)): 2.7 nM
- IC50 (Homo sapiens, COLO 205, 72 h, COLO205 cell line (colon)): 20.2 nM
- IC50 (Homo sapiens, COLO-678, 72 h, COLO678 cell line (colon)): 5.3 nM
- IC50 (Homo sapiens, Ca-Ski, CASKI cell line (cervical)): 5.9 nM
- IC50 (Homo sapiens, Caco-2, 72 h, CACO2 cell line (colon)): 7 nM
- IC50 (Homo sapiens, Calu-6, 72 h, CALU6 cell line (lung)): 6.1 nM
- IC50 (Homo sapiens, DLD-1, 72 h, DLD1 cell line (colon)): 5.3 nM
- IC50 (Homo sapiens, DU-145, 72 h, DU145 cell line (prostate)): 2.1 nM
- IC50 (Homo sapiens, EFO-21, 72 h, EFO21 cell line (ovary)): 1.9 nM
- IC50 (Homo sapiens, EJ-28, 72 h, EJ28 cell line (bladder)): 2.1 nM
- IC50 (Homo sapiens, Granta-519, 72 h, GRANTA-519 cell line (hematological)): 0.5 nM
- IC50 (Homo sapiens, HCT-15, 72 h, HCT15 cell line (colon)): 4.7 nM
- IC50 (Homo sapiens, HCT-116, 72 h, HCT116 cell line (colon)): 2 nM
- IC50 (Homo sapiens, HEK293, 72 h, HEK293 cell line (kidney)): 20.9 nM
- IC50 (Homo sapiens, HL-60, 72 h, HL-60 cell line (hematological)): 2.2 nM
- IC50 (Homo sapiens, HT-29, 72 h, HT29 cell line (colon)): 3.5 nM
- IC50 (Homo sapiens, HT-1080, 72 h, HT1080 cell line (connective tissue)): 1.7 nM
- IC50 (Homo sapiens, HeLa, HELA cell line (cervical)): 6 nM
- IC50 (Homo sapiens, HepG2, 72 h, HEPG2 cell line (liver)): 2 nM
- IC50 (Homo sapiens, IGROV-1, 72 h, IGROV1 cell line (ovary)): 4.8 nM
- IC50 (Homo sapiens, IMR-90, 72 h, IMR.90 cell line): 2.6 nM
- IC50 (Homo sapiens, J82, 72 h, J82 cell line (bladder)): 5.1 nM
- IC50 (Homo sapiens, JEG-3, 72 h, JEG3 cell line (placenta)): 5.3 nM
- IC50 (Homo sapiens, JIMT-1, 72 h, JIMT1 cell line (breast)): 0.9 nM
- IC50 (Homo sapiens, K562, 72 h, K-562 cell line (hematological)): 14.2 nM
- IC50 (Homo sapiens, Kasumi 1, 72 h, KASUMI-1 cell line (hematological)): 3.5 nM
- IC50 (Homo sapiens, L-363, 72 h, L-363 cell line (hematological)): 3.4 nM
- IC50 (Homo sapiens, LoVo, LOVO cell line (colon)): 2.3 nM
- IC50 (Homo sapiens, MCF7, 72 h, MCF7 cell line (breast)): 4.1 nM
- IC50 (Homo sapiens, MDA-MB-231, 72 h, MDAMB231 cell line (breast)): 0.9 nM
- IC50 (Homo sapiens, MDA-MB-435, 72 h, MDAMB435 cell line (skin)): 2.8 nM
- IC50 (Homo sapiens, MDA-MB-436, 72 h, MDAMB436 cell line (breast)): 1.8 nM
- IC50 (Homo sapiens, MDA-MB-468, 72 h, MDAMB468 cell line (breast)): 1.9 nM
- IC50 (Homo sapiens, MG-63, 72 h, MG63 cell line (bone)): 4.8 nM
- IC50 (Homo sapiens, MHH-ES-1, 72 h, MHHES1 cell line (bone)): 2 nM
- IC50 (Homo sapiens, MIA PaCa-2, 72 h, MIAPACA2 cell line (pancreas)): 6.8 nM
- IC50 (Homo sapiens, MINO, MINO cell line (hematological)): 0.3 nM
- IC50 (Homo sapiens, MV4-11, 72 h, MV4-11 cell line (hematological)): 1.1 nM
- IC50 (Homo sapiens, NCI-H23, 72 h, NCI-H23 cell line (lung)): 1.1 nM
- IC50 (Homo sapiens, NCI-H82, 72 h, NCIH82 cell line (lung)): 7.6 nM
- IC50 (Homo sapiens, NCI-H292, 72 h, NCIH292 cell line (lung)): 4.4 nM
- IC50 (Homo sapiens, NCI-H460, 72 h, NCIH460 cell line (lung)): 5 nM
- IC50 (Homo sapiens, OVCAR-3, 72 h, OVCAR3 cell line (ovary)): 3.1 nM
- IC50 (Homo sapiens, OVCAR-4, 72 h, OVCAR4 cell line (ovary)): 4.9 nM
- IC50 (Homo sapiens, PANC-1, 72 h, PANC1 cell line (pancreas)): 9.7 nM
- IC50 (Homo sapiens, PC-3, 72 h, PC3 cell line (prostate)): 2.6 nM
- IC50 (Homo sapiens, PLC-PRF-5, 72 h, PLCPRF5 cell line (liver)): 9.2 nM
- IC50 (Homo sapiens, Panc1005, 72 h, PANC1005 cell line (pancreas)): 7.9 nM
- IC50 (Homo sapiens, RD, RD cell line (muscle)): 2.3 nM
- IC50 (Homo sapiens, Ramos, RAMOS cell line (hematological)): 0.6 nM
- IC50 (Homo sapiens, SAOS-2, 72 h, SAOS2 cell line (bone)): 0.5 nM
- IC50 (Homo sapiens, SF-268, 72 h, SF268 cell line (brain)): 4.1 nM
- IC50 (Homo sapiens, SF-295, 72 h, SF295 cell line (brain)): 3.3 nM
- IC50 (Homo sapiens, SK-BR-3, 72 h, SKBR3 cell line (breast)): 0.6 nM
- IC50 (Homo sapiens, SK-HEP1, 72 h, SKHEP1 cell line (liver)): 4.7 nM
- IC50 (Homo sapiens, SK-LMS-1, 72 h, SKLMS1 cell line (uterus)): 4.1 nM
- IC50 (Homo sapiens, SK-MEL-28, 72 h, SKMEL28 cell line (skin)): 4.3 nM
- IC50 (Homo sapiens, SK-N-AS, SKNAS cell line (brain)): 3.6 nM
- IC50 (Homo sapiens, SK-N-SH, SKNSH cell line (brain)): 3.3 nM
- IC50 (Homo sapiens, SK-OV-3, 72 h, SKOV3 cell line (ovary)): 23.7 nM
- IC50 (Homo sapiens, SNB-75, 72 h, SNB75 cell line (brain)): 5.3 nM
- IC50 (Homo sapiens, SU-DHL10, 72 h, SU-DHL-10 cell line (hematological)): 4.1 nM
- IC50 (Homo sapiens, SU-DHL-6, 72 h, SU-DHL-6 cell line (hematological)): 6.8 nM
- IC50 (Homo sapiens, SW-620, 72 h, SW620 cell line (colon)): 3 nM
- IC50 (Homo sapiens, T-24, 72 h, T24 cell line (bladder)): 1.4 nM
- IC50 (Homo sapiens, TE-671, 72 h, TE671 cell line (muscle)): 8.3 nM
- IC50 (Homo sapiens, THP-1, 72 h, THP-1 cell line (hematological)): 1.1 nM
- IC50 (Homo sapiens, U2OS, U2OS cell line (bone)): 5.7 nM
- IC50 (Homo sapiens, U-87 MG, U87MG cell line (brain)): 1.5 nM
- IC50 (Homo sapiens, UMUC3, 72 h, UMUC3 cell line (bladder)): 4.3 nM
- IC50 (Homo sapiens, UO-31, 72 h, UO31 cell line (kidney)): 3.7 nM
- IC50 (Homo sapiens, WSU-NHL, WSU-NHL cell line (hematological)): 4.5 nM
- IC50 (MT-3, 72 h, MT3 cell line (breast)): 0.9 nM
- IC50 (NCI-H358M, NCIH358M cell line (lung)): 3.5 nM
- IC50 (PBMC, PBMC (hematological)): 12300 nM
- IC50 (RD-ES, RDES cell line (bone)): 3.7 nM
- cytotoxicity against a panel of cell lines (waterfall plot) (panel of cancer and non-cancer cell lines, figure legends FIG. 1-3): indiscriminately cytotoxic
